Reference: patent publication US9636299B2, “Method for treating diabetic retinopathy” (XAVIER UNIVERSITY OF LOUISIANA, priority 2012, dated 2017)
Residues, ends and D or L forms follow the SMILES beside them.

Test system: occludin
Experiment: Streptozotocin-induced diabetic mice, retinal occludin protein by Western blot
Type: in vivo, mouse
Conditions: 14 days
Description: Western Blotting. The hRMECs were harvested in M-PER Mammalian Protein Extraction Reagent (Thermo Fisher Scientific, Inc., Rockford, Ill.) containing protease inhibitor cocktail. The total protein concentration was determined using a BCA protein assay kit (Pierce, Rockford, Ill.). Equal amounts of protein were separated by electrophoresis on 5-20% SDS-polyacrylamide gels and transferred electrophoretically onto nitrocellulose membranes (Amersham, Little Chalfont, UK). […] To ensure the equal loading of protein in each lane, each membrane was stripped and re-probed with an antibody against β-actin, and the chemiluminescence was detected as described previously. After scanning the blots with a flatbed scanner, band intensities were analyzed using ImageJ (NIH) and the relative intensity values were normalized to control values. […]
To investigate the effects on the retinal tight junction protein occludin following topical eye drop (1% apoEdp) or systemic i/p injection (40 mg/kg) of apoEdp, retinas from enucleated mouse eyes were processed to harvest total RNA, and then one-step real-time RT-PCR was performed using mice occludin-specific mRNA expression. […] To correlate the occludin-specific mRNA data at a protein level, total proteins extracted from retinas of different experimental groups (FIG. 10) were analyzed using Western-blot to detect occludin-specific protein expression.

## CC(=O)N[C@@H](CC(C)C)C(=O)N[C@@H](CCCNC(=N)N)C(=O)N[C@@H](CCCCN)C(=O)N[C@@H](CC(C)C)C(=O)N[C@@H](CCCNC(=N)N)C(=O)N[C@@H](CCCCN)C(=O)N[C@@H](CCCNC(=N)N)C(=O)N[C@@H](CC(C)C)C(=O)N[C@@H](CC(C)C)C(=O)N[C@@H](CC(C)C)C(=O)N[C@@H](CCCNC(=N)N)C(=O)N[C@@H](CCCCN)C(=O)N[C@@H](CC(C)C)C(=O)N[C@@H](CCCNC(=N)N)C(=O)N[C@@H](CCCCN)C(=O)N[C@@H](CCCNC(=N)N)C(=O)N[C@@H](CC(C)C)C(=O)N[C@@H](CC(C)C)C(N)=O [apoEdp, Ac-LRKLRKRLLLRKLRKRLL-amide] (Ac-LRKLRKRLLLRKLRKRLL-NH2)
1% apoEdp eye drop 4 times a day
  Loss of occludin protein in retina: significantly attenuated the loss
i/p injection 40 mg/kg daily
  Loss of occludin protein in retina: significantly attenuated the loss
